From the CheMixHub viscosity set
± gives the uncertainty stated by the source.

Assay: xn = mol fraction of the nth substance listed

SMILES: [Br-].[Na+] + O
- viscosity (293.15 K, 101.3 kPa, x1 = 0.0009): 1.005 ± 0.022 mPa·s
- viscosity (293.15 K, 101.3 kPa, x1 = 0.0018): 1.007 ± 0.022 mPa·s
- viscosity (293.15 K, 101.3 kPa, x1 = 0.00893): 1.027 ± 0.022 mPa·s
- viscosity (293.15 K, 101.3 kPa, x1 = 0.0177): 1.055 ± 0.023 mPa·s
- viscosity (293.15 K, 101.3 kPa, x1 = 0.03478): 1.131 ± 0.024 mPa·s
- viscosity (293.15 K, 101.3 kPa, x1 = 0.05127): 1.235 ± 0.026 mPa·s
- viscosity (293.15 K, 101.3 kPa, x1 = 0.06722): 1.368 ± 0.029 mPa·s
- viscosity (293.15 K, 101.3 kPa, x1 = 0.09755): 1.746 ± 0.037 mPa·s
- viscosity (293.15 K, 101.3 kPa, x1 = 0.126): 2.317 ± 0.05 mPa·s
- viscosity (298.15 K, 100 kPa, x1 = 0.00088): 0.8936 ± 0.015 mPa·s
- viscosity (298.15 K, 100 kPa, x1 = 0.00351): 0.895 ± 0.038 mPa·s
- viscosity (298.15 K, 100 kPa, x1 = 0.00368): 0.9007 ± 0.015 mPa·s
- viscosity (298.15 K, 100 kPa, x1 = 0.00829): 0.9176 ± 0.016 mPa·s
- viscosity (298.15 K, 100 kPa, x1 = 0.00879): 0.9099 ± 0.039 mPa·s
- viscosity (298.15 K, 100 kPa, x1 = 0.0101): 0.9211 ± 0.016 mPa·s
- viscosity (298.15 K, 100 kPa, x1 = 0.0146): 0.9363 ± 0.016 mPa·s
- viscosity (298.15 K, 100 kPa, x1 = 0.0177): 0.9479 ± 0.04 mPa·s
- viscosity (298.15 K, 100 kPa, x1 = 0.01952): 0.9523 ± 0.016 mPa·s
- viscosity (298.15 K, 100 kPa, x1 = 0.02624): 0.9808 ± 0.017 mPa·s
- viscosity (298.15 K, 100 kPa, x1 = 0.03489): 1.022 ± 0.017 mPa·s
- viscosity (298.15 K, 100 kPa, x1 = 0.04115): 1.054 ± 0.018 mPa·s
- viscosity (298.15 K, 100 kPa, x1 = 0.05064): 1.112 ± 0.019 mPa·s
- viscosity (298.15 K, 100 kPa, x1 = 0.05382): 1.186 ± 0.051 mPa·s
- viscosity (298.15 K, 100 kPa, x1 = 0.08817): 1.474 ± 0.063 mPa·s
- viscosity (298.15 K, 101.3 kPa, x1 = 0.0009): 0.8935 ± 0.019 mPa·s
- viscosity (298.15 K, 101.3 kPa, x1 = 0.0018): 0.8956 ± 0.019 mPa·s
- viscosity (298.15 K, 101.3 kPa, x1 = 0.00893): 0.9162 ± 0.019 mPa·s
- viscosity (298.15 K, 101.3 kPa, x1 = 0.0177): 0.9443 ± 0.02 mPa·s
- viscosity (298.15 K, 101.3 kPa, x1 = 0.03478): 1.016 ± 0.022 mPa·s
- viscosity (298.15 K, 101.3 kPa, x1 = 0.05127): 1.111 ± 0.024 mPa·s
- viscosity (298.15 K, 101.3 kPa, x1 = 0.06722): 1.231 ± 0.026 mPa·s
- viscosity (298.15 K, 101.3 kPa, x1 = 0.09755): 1.563 ± 0.033 mPa·s
- viscosity (298.15 K, 101.3 kPa, x1 = 0.126): 2.052 ± 0.044 mPa·s
- viscosity (303.15 K, 101.3 kPa, x1 = 0.0009): 0.8006 ± 0.017 mPa·s
- viscosity (303.15 K, 101.3 kPa, x1 = 0.0018): 0.803 ± 0.017 mPa·s
- viscosity (303.15 K, 101.3 kPa, x1 = 0.00893): 0.824 ± 0.017 mPa·s
- viscosity (303.15 K, 101.3 kPa, x1 = 0.0177): 0.8517 ± 0.018 mPa·s
- viscosity (303.15 K, 101.3 kPa, x1 = 0.03478): 0.9187 ± 0.019 mPa·s
- viscosity (303.15 K, 101.3 kPa, x1 = 0.05127): 1.006 ± 0.021 mPa·s
- viscosity (303.15 K, 101.3 kPa, x1 = 0.06722): 1.114 ± 0.024 mPa·s
- viscosity (303.15 K, 101.3 kPa, x1 = 0.09755): 1.407 ± 0.03 mPa·s
- viscosity (303.15 K, 101.3 kPa, x1 = 0.126): 1.833 ± 0.039 mPa·s
- viscosity (303.74 K, 100 kPa, x1 = 0.03489): 0.9102 ± 0.015 mPa·s
- viscosity (303.75 K, 100 kPa, x1 = 0.05064): 0.9936 ± 0.017 mPa·s
- viscosity (303.86 K, 100 kPa, x1 = 0.04115): 0.9393 ± 0.016 mPa·s
- viscosity (306.42 K, 100 kPa, x1 = 0.00829): 0.7716 ± 0.013 mPa·s
- viscosity (308.15 K, 101.3 kPa, x1 = 0.0009): 0.7225 ± 0.015 mPa·s
- viscosity (308.15 K, 101.3 kPa, x1 = 0.0018): 0.7249 ± 0.015 mPa·s
- viscosity (308.15 K, 101.3 kPa, x1 = 0.00893): 0.7458 ± 0.016 mPa·s
- viscosity (308.15 K, 101.3 kPa, x1 = 0.0177): 0.7722 ± 0.016 mPa·s
- viscosity (308.15 K, 101.3 kPa, x1 = 0.03478): 0.8359 ± 0.018 mPa·s
- viscosity (308.15 K, 101.3 kPa, x1 = 0.05127): 0.9163 ± 0.019 mPa·s
- viscosity (308.15 K, 101.3 kPa, x1 = 0.06722): 1.014 ± 0.022 mPa·s
- viscosity (308.15 K, 101.3 kPa, x1 = 0.09755): 1.277 ± 0.027 mPa·s
- viscosity (308.15 K, 101.3 kPa, x1 = 0.126): 1.649 ± 0.035 mPa·s
- viscosity (308.44 K, 100 kPa, x1 = 0.01952): 0.7804 ± 0.013 mPa·s
- viscosity (308.74 K, 100 kPa, x1 = 0.00088): 0.7144 ± 0.012 mPa·s
- viscosity (308.75 K, 100 kPa, x1 = 0.02624): 0.7947 ± 0.014 mPa·s
- viscosity (308.94 K, 100 kPa, x1 = 0.0146): 0.7534 ± 0.013 mPa·s
- viscosity (309.24 K, 100 kPa, x1 = 0.0101): 0.7342 ± 0.013 mPa·s
- viscosity (310.75 K, 100 kPa, x1 = 0.05064): 0.8742 ± 0.015 mPa·s
- viscosity (311.42 K, 100 kPa, x1 = 0.04115): 0.8205 ± 0.014 mPa·s
- viscosity (311.74 K, 100 kPa, x1 = 0.00368): 0.6805 ± 0.012 mPa·s
- viscosity (313.15 K, 101.3 kPa, x1 = 0.0009): 0.6562 ± 0.014 mPa·s
- viscosity (313.15 K, 101.3 kPa, x1 = 0.0018): 0.6587 ± 0.014 mPa·s
- viscosity (313.15 K, 101.3 kPa, x1 = 0.00893): 0.679 ± 0.014 mPa·s
- viscosity (313.15 K, 101.3 kPa, x1 = 0.0177): 0.7046 ± 0.015 mPa·s
- viscosity (313.15 K, 101.3 kPa, x1 = 0.03478): 0.7648 ± 0.016 mPa·s
- viscosity (313.15 K, 101.3 kPa, x1 = 0.05127): 0.8392 ± 0.018 mPa·s
- viscosity (313.15 K, 101.3 kPa, x1 = 0.06722): 0.929 ± 0.02 mPa·s
- viscosity (313.15 K, 101.3 kPa, x1 = 0.09755): 1.165 ± 0.025 mPa·s
- viscosity (313.15 K, 101.3 kPa, x1 = 0.126): 1.494 ± 0.032 mPa·s
- viscosity (318.15 K, 101.3 kPa, x1 = 0.0009): 0.5992 ± 0.013 mPa·s
- viscosity (318.15 K, 101.3 kPa, x1 = 0.0018): 0.6017 ± 0.013 mPa·s
- viscosity (318.15 K, 101.3 kPa, x1 = 0.00893): 0.6213 ± 0.013 mPa·s
- viscosity (318.15 K, 101.3 kPa, x1 = 0.0177): 0.646 ± 0.014 mPa·s
- viscosity (318.15 K, 101.3 kPa, x1 = 0.03478): 0.7032 ± 0.015 mPa·s
- viscosity (318.15 K, 101.3 kPa, x1 = 0.05127): 0.7724 ± 0.016 mPa·s
- viscosity (318.15 K, 101.3 kPa, x1 = 0.06722): 0.855 ± 0.018 mPa·s
- viscosity (318.15 K, 101.3 kPa, x1 = 0.09755): 1.069 ± 0.023 mPa·s
- viscosity (318.15 K, 101.3 kPa, x1 = 0.126): 1.363 ± 0.029 mPa·s
- viscosity (323.02 K, 100 kPa, x1 = 0.00088): 0.5507 ± 0.0095 mPa·s
- viscosity (323.15 K, 100 kPa, x1 = 0.00351): 0.5505 ± 0.024 mPa·s
- viscosity (323.15 K, 100 kPa, x1 = 0.00879): 0.5603 ± 0.024 mPa·s
- viscosity (323.15 K, 100 kPa, x1 = 0.0177): 0.5834 ± 0.025 mPa·s
- viscosity (323.15 K, 100 kPa, x1 = 0.05382): 0.7427 ± 0.032 mPa·s
- viscosity (323.15 K, 100 kPa, x1 = 0.08817): 0.9292 ± 0.04 mPa·s
- viscosity (323.15 K, 101.3 kPa, x1 = 0.0009): 0.5496 ± 0.012 mPa·s
- viscosity (323.15 K, 101.3 kPa, x1 = 0.0018): 0.5519 ± 0.012 mPa·s
- viscosity (323.15 K, 101.3 kPa, x1 = 0.00893): 0.5708 ± 0.012 mPa·s
- viscosity (323.15 K, 101.3 kPa, x1 = 0.0177): 0.5948 ± 0.013 mPa·s
- viscosity (323.15 K, 101.3 kPa, x1 = 0.03478): 0.6489 ± 0.014 mPa·s
- viscosity (323.15 K, 101.3 kPa, x1 = 0.05127): 0.7136 ± 0.015 mPa·s
- viscosity (323.15 K, 101.3 kPa, x1 = 0.06722): 0.7896 ± 0.017 mPa·s
- viscosity (323.15 K, 101.3 kPa, x1 = 0.09755): 0.9845 ± 0.021 mPa·s
- viscosity (323.15 K, 101.3 kPa, x1 = 0.126): 1.248 ± 0.026 mPa·s
